Source: ChEMBL document CHEMBL1123640, “Synthesis and antiviral activity of carbocyclic analogues of xylofuranosides of 2-amino-6-substituted-purines and 2-amino-6-substituted-8-azapurines” (1987)
≈ marks a conversion by molar mass, not a printed value.

Legend:
Human alphaherpesvirus 1 [1] = assay: The compound was tested in vitro for anti viral activity against Herpes simplex virus type 1 (strain 377); format: functional
P388 = assay: Tested for inhibitory activity against P-388 leukemia cells; format: functional; conditions: Mus musculus, read-out: ED50 (the source's name)
Human alphaherpesvirus 1 [2] = assay: Minimum inhibitory concentration required to inhibit Herpes simplex virus type 1 (strain 377) induced cytopathogenic effects by 50%.; format: functional
Human alphaherpesvirus 1 [3] = assay: The compound was tested in vitro for definite and significant anti viral activity against Herpes simplex virus type 1 (strain 377); value indicates definite and significant antiviral activity; format: functional
MRC5 [4] = assay: Replication of human cytomegalovirus strain […] virus yield reduction assay in human diploid embryonic lung cells (MRC5) at 32 uM; format: functional
MRC5 [5] = assay: Cytotoxicity (gross morphology) was evaluated at 100 uM; format: functional, Homo sapiens
MRC5 [6] = assay: Percent reduction of CPE (plaques) at the time of harvest at 3.2 uM; format: functional, Homo sapiens
MRC5 [7] = assay: Percent reduction of CPE (plaques) at the time of harvest at 32 uM; format: functional, Homo sapiens
MRC5 [8] = assay: Replication of human cytomegalovirus strain […] virus yield reduction assay in human diploid embryonic lung cells (MRC5) at 10 uM; format: functional
MRC5 [9] = assay: Replication of human cytomegalovirus strain […] virus yield expressed as plaque forming units/mL at 3.2 uM; format: functional
MRC5 [10] = assay: Cytotoxicity was determined at 100 uM; format: functional, Homo sapiens
Human alphaherpesvirus 2 [11] = assay: Minimum inhibitory concentration required to inhibit Herpes simplex virus type 2 (strain MS) induced cytopathogenic effects by 50%. (experiment 2)
Homo sapiens [12] = species: Homo sapiens; assay: Antiviral activity against Varicella-Zoster virus (VV) in human foreskin cell cultures in virus plaque reduction assay at 100 uM; format: functional
Homo sapiens [13] = species: Homo sapiens; assay: Antiviral activity against Varicella-Zoster virus (VV) in human foreskin cell cultures in virus plaque reduction assay at 10 uM; format: functional
Human alphaherpesvirus 2 [14] = assay: The compound was tested in vitro for anti viral activity against Herpes simplex virus type 2 (strain MS) (experiment 1); value indicates definite and significant antiviral activity
MRC5 [15] = assay: Replication of human cytomegalovirus strain […] virus yield expressed as plaque forming units/mL at 100 uM; format: functional
MRC5 [16] = assay: Replication of human cytomegalovirus strain […] virus yield reduction assay in human diploid embryonic lung cells (MRC5) at 1000 uM (308 ug/mL); format: functional
MRC5 [17] = assay: Percent reduction of CPE (plaques) at the time of harvest at 1 uM; format: functional, Homo sapiens
MRC5 [18] = assay: Replication of human cytomegalovirus strain […] virus yield reduction assay in human diploid embryonic lung cells (MRC5) at 1 uM; format: functional
MRC5 [19] = assay: Percent reduction of CPE (plaques) at the time of harvest at 100 uM; format: functional, Homo sapiens
MRC5 [20] = assay: Replication of human cytomegalovirus strain […] virus yield expressed as plaque forming units/mL at 1000 uM (308 ug/mL); format: functional
Homo sapiens [21] = species: Homo sapiens; assay: Antiviral activity against Varicella-Zoster virus (VV) in human foreskin cell cultures in virus plaque reduction assay at 3.2uM; format: functional
Human alphaherpesvirus 1 [22] = assay: Minimum inhibitory concentration required to inhibit Herpes simplex virus type 1 (strain 377) induced cytopathogenic effects by 50%. (experiment 1); format: functional
Homo sapiens [23] = species: Homo sapiens; assay: Antiviral activity against Varicella-Zoster virus (VV) in human foreskin cell cultures in virus plaque reduction assay at 32 uM; format: functional
MRC5 [24] = assay: Replication of human cytomegalovirus strain […] virus yield expressed as plaque forming units/mL at 10 uM; format: functional
MRC5 [25] = assay: Percent reduction of CPE (plaques) at the time of harvest at 10 uM; format: functional, Homo sapiens
MRC5 [26] = assay: Replication of human cytomegalovirus strain […] virus yield expressed as plaque forming units/mL at 1 uM; format: functional
MRC5 [27] = assay: Replication of human cytomegalovirus strain […] virus yield expressed as plaque forming units/mL at 320 uM; format: functional
Human alphaherpesvirus 2 [28] = assay: Minimum inhibitory concentration required to inhibit Herpes simplex virus type 2 (strain MS) induced cytopathogenic effects by 50%. (experiment 1)
Human alphaherpesvirus 1 [29] = assay: The compound was tested in vitro for anti viral activity against Herpes simplex virus type 1 (strain 377) (experiment 1); value indicates definite and significant antiviral activity; format: functional
Homo sapiens [30] = species: Homo sapiens; assay: Antiviral activity against Varicella-Zoster virus (VV) in human foreskin cell cultures in virus plaque reduction assay at 1000 uM; format: functional
MRC5 [31] = assay: Replication of human cytomegalovirus strain […] virus yield reduction assay in human diploid embryonic lung cells (MRC5) at 100 uM; format: functional
Human alphaherpesvirus 2 [32] = assay: The compound was tested in vitro for anti viral activity against Herpes simplex virus type 2 (strain MS) (experiment 2); value indicates definite and significant antiviral activity
MRC5 [33] = assay: Percent reduction of CPE (plaques) at the time of harvest at 320 uM; format: functional, Homo sapiens
MRC5 [34] = assay: Replication of human cytomegalovirus strain […] virus yield expressed as plaque forming units/mL at 32 uM; format: functional
Human alphaherpesvirus 1 [35] = assay: The compound was tested in vitro for anti viral activity against Herpes simplex virus type 1 (strain 377) (experiment 2); value indicates definite and significant antiviral activity; format: functional
MRC5 [36] = assay: Cytotoxicity (gross morphology) was evaluated at 1 uM; format: functional, Homo sapiens
MRC5 [37] = assay: Cytotoxicity was determined at 320 uM; format: functional, Homo sapiens
MRC5 [38] = assay: Percent reduction of CPE (plaques) at the time of harvest at 1000 uM (308 ug/mL); format: functional, Homo sapiens
MRC5 [39] = assay: Replication of human cytomegalovirus strain […] virus yield reduction assay in human diploid embryonic lung cells (MRC5) at 320 uM; format: functional
Homo sapiens [40] = species: Homo sapiens; assay: Antiviral activity against Varicella-Zoster virus (VV) in human foreskin cell cultures in virus plaque reduction assay at 1 uM; format: functional
MRC5 [41] = assay: Cytotoxicity (gross morphology) was evaluated at 32 uM; format: functional, Homo sapiens
MRC5 [42] = assay: Cytotoxicity (gross morphology) was evaluated at 3.2uM; format: functional, Homo sapiens
Human alphaherpesvirus 1 [43] = assay: Minimum inhibitory concentration required to inhibit Herpes simplex virus type 1 (strain 377) induced cytopathogenic effects by 50%. (experiment 2); format: functional
MRC5 [44] = assay: Cytotoxicity was determined at 32 uM; format: functional, Homo sapiens
MRC5 [45] = assay: Replication of human cytomegalovirus strain […] virus yield reduction assay in human diploid embryonic lung cells (MRC5) at 3.2 uM; format: functional
Homo sapiens [46] = species: Homo sapiens; assay: Antiviral activity against Varicella-Zoster virus (VV) in human foreskin cell cultures in virus plaque reduction assay at 320 uM; format: functional
MRC5 [47] = assay: Cytotoxicity (gross morphology) was evaluated at 10 uM; format: functional, Homo sapiens

For `Nc1nc(Cl)c2nnn(C3CC(CO)C(O)C3O)c2n1` (stereo not given), which Virus rating (Human alphaherpesvirus 1 [1]) is on record?
Its Virus rating is 0.6.

And the EC50 (P388)?
Its EC50 is 50 µM.

What about the MIC50 (Human alphaherpesvirus 1 [2]) of the same compound?
Its MIC50 is 100 µg/mL (≈ 333 µM).

Which results are given for `Nc1nc(N)c2nnn(C3CC(CO)C(O)C3O)c2n1` (stereo not given)?
Virus rating (Human alphaherpesvirus 1 [3]): 2; EC50 (P388): 5.3 µM; MIC50 (Human alphaherpesvirus 1 [2]): 66.9 µg/mL (≈ 238 µM)

What does the source list for `Nc1nc(O)c2ncn(C3CC(CO)C(O)C3O)c2n1` (stereo not given)?
Virus yield reduction (MRC5 [4]): 1.1; Cytotoxicity (MRC5 [5]): 0; Reduction (MRC5 [6]): 0%; Reduction (MRC5 [7]): 25%; Virus yield reduction (MRC5 [8]): 0.2; CMV yield (MRC5 [9]): 108000 pfu/ml; Cytotoxicity (MRC5 [10]): 0; MIC50 (Human alphaherpesvirus 2 [11]): 23.5 µg/mL (≈ 83.5 µM); Reduction (Homo sapiens [12]): 100%; Reduction (Homo sapiens [13]): 26%; Virus rating (Human alphaherpesvirus 2 [14]): 2.6; CMV yield (MRC5 [15]): 100 pfu/ml; Virus yield reduction (MRC5 [16]): 5.2; Reduction (MRC5 [17]): 0%; Virus yield reduction (MRC5 [18]): 0.2; Reduction (MRC5 [19]): 80%; CMV yield (MRC5 [20]): 0 pfu/ml; Reduction (Homo sapiens [21]): 18%; MIC50 (Human alphaherpesvirus 1 [22]): 1.8 µg/mL (≈ 6.4 µM); Reduction (Homo sapiens [23]): 79%; EC50 (P388): 8.9 µM; CMV yield (MRC5 [24]): 96000 pfu/ml; Reduction (MRC5 [25]): 0%; CMV yield (MRC5 [26]): 96000 pfu/ml; CMV yield (MRC5 [27]): 0 pfu/ml; MIC50 (Human alphaherpesvirus 2 [28]): 22.8 µg/mL (≈ 81.1 µM); Virus rating (Human alphaherpesvirus 1 [29]): 5.7; Reduction (Homo sapiens [30]): 100%; Virus yield reduction (MRC5 [31]): 3.2; Virus rating (Human alphaherpesvirus 2 [32]): 3.9; Reduction (MRC5 [33]): 100%; CMV yield (MRC5 [34]): 12800 pfu/ml; Virus rating (Human alphaherpesvirus 1 [35]): 5.6; Cytotoxicity (MRC5 [36]): 0; Cytotoxicity (MRC5 [37]): 0; Reduction (MRC5 [38]): 100%; Virus yield reduction (MRC5 [39]): 5.2; Reduction (Homo sapiens [40]): 18%; Cytotoxicity (MRC5 [41]): 0; Cytotoxicity (MRC5 [42]): 0; MIC50 (Human alphaherpesvirus 1 [43]): 3 µg/mL (≈ 10.7 µM); Cytotoxicity (MRC5 [44]): 0; Virus yield reduction (MRC5 [45]): 0.2; Reduction (Homo sapiens [46]): 100%; Cytotoxicity (MRC5 [47]): 0

For `COc1nc(N)nc2c1nnn2C1CC(CO)C(O)C1O` (stereo not given), which EC50 (P388) is on record?
Its EC50 is 63 µM.

How did the Virus rating (Human alphaherpesvirus 1 [1]) turn out when `Nc1nc(N)c2ncn(C3CC(CO)C(O)C3O)c2n1` (stereo not given) was run?
Its Virus rating is 2.7.

What about the EC50 (P388) of the same compound?
Its EC50 is 39 µM.

What about the MIC50 (Human alphaherpesvirus 1 [2]) of the same compound?
Its MIC50 is 85 µg/mL (≈ 303 µM).
